Results: patent US4791215A, “Derivatives of glutamic acid and aspartic acid” (priority 1984, dated 1988)

Tests used:
[1] = test system: morphine analgesia; assay: Increase in analgesia of morphine, Tail Flick Test (Experiment 1); type: in vivo, rats; settings: for percentage variation of latency of pain sensation / M (10-90) ± SE, mean percentage variation of latency: compound 10 mg/kg i.p. + morphine 2 mg/kg; for M (10-90) ± SE, mean percentage variation of latency: mean 10-90 min; for Power ratio with respect to morphine alone: rat, in vivo
Description: Experiment No: 1 Increase in analgesia of analgesic-narcotic drugs in rats by the Tail Flick Test
The method is that described by Harris et al. (J. Pharmacol. Exp. Ther. 143 (1964) 141-148).
Male rats are used having a weight of about 150-200 g which have not fasted. A point on the tail is chosen and irradiated by a heat source (75° C.) and the time (in seconds) for which the animal remains without moving its tail is measured.
A maximum period of time of 8 seconds under the heat source is chosen, after which the animal is, in any case, removed to avoid tissue damage. The measurement is effected before (controls) and after treatment with the drugs.
The percentage variation is calculated for each individual animal by the following formula: [formula] The measurements were carried out 10, 20, 30, 45, 60 and 90 minutes after treatment with the analgesics.

[2] = test system: CCK-8 induced contraction of guinea pig gall bladder; assay: Anti-CCK activity on gall bladder strips in vitro; settings: CCK-8 10 ng/ml
Description: ANTI-CCK ACTIVITY ON GUINEA PIG GALL BALDDERS IN VITRO
A longitudinal strip of guinea pig gall bladder was placed in a bath of isolated members in the presence of Krebs at a temperature of 32° C. with continuous oxygenation with an oxygen-CO2 mixture (95-5V/V).
The isometric contractions were detected by means of a force transducer and recorded.
The gall bladder was made to contract with the use of a 10 ng/ml concentration of CCK-8; the antagonistic activity of the compounds of the invention on the contracting effect of the CCK was determined with the use of different concentrations and the ED 50 value, that is the concentration in μg/ml of a compound which could antagonise 50% of the contracting effect of the CCK, was determined.

[3] = test system: activity of analgesic drugs; assay: Hot-plate test, potentiation of analgesic drugs (Experiment 2); type: in vivo, rats
Description: Experiment No. 2: Hot-plate test
The method is that described by Eddy et al. (J. Pharmac. Exp. Ther. 107, 385 (1953)).
Groups of five male rats having a weight of about 150 g, and which have not fasted, are used.
The animals are placed on a metal plate on the bottom of a transparent cylinder, which is heated to 55°±1° C. by an azeotropic boiling mixture (acetone-ethyl formate 1:1).
The reaction time is defined as the interval which passes between the moment at which the animal is placed on the hot-plate and the moment at which it either licks its feet or tries to jump out of the cylinder. The control reaction time is measured 10 and 5 minutes before administration of the drugs and 10, 20, 30, 45, 60 and 90 minutes afterwards. The animals are left on the plate for a maximum period of 30 seconds.
The response to the administration of the product is considered positive if at least a doubling of the normal reaction time is seen. The results obtained are given in Tables 2a and 2b which record the groups treated, the doses administered and the stay times on the plate expressed as the number of positive responses over the number treated.

| Molecule | percentage variation of latency of pain sensation ([1]; 10') | percentage variation of latency of pain sensation ([1]; 20') | percentage variation of latency of pain sensation ([1]; 30') | percentage variation of latency of pain sensation ([1]; 45') | percentage variation of latency of pain sensation ([1]; 60') | percentage variation of latency of pain sensation ([1]; 90') | M (10-90) ± SE, mean percentage variation of latency [1] | Power ratio with respect to morphine alone [1] | ED50 (concentration antagonising 50% of contracting effect of CCK-8) [2] | also measured |
| --- | --- | --- | --- | --- | --- | --- | --- | --- | --- | --- |
| CCCN(CCC)C(=O)C(CCC(=O)O)NC(=O)c1c(C)cc(C)cc1C (stereo not drawn) [Compound C-33] | -0.1 ± 12% | 30.9 ± 8% | 38.7% | 41.7 ± 16% | 48.7 ± 21% | 46.6 ± 12% | 34.4 ± 18% | 1.15 | 131.7 µg/mL |  |
| CCCN(CCC)C(=O)C(CC(=O)O)NC(=O)c1ccccc1Br (stereo not drawn) [Compound C-16] | 43.2 ± 11.0% | 88.7 ± 10.0% | 54.8 ± 5.8% | 47.3% | 26.1 ± 11.5% | 22.2 ± 16.7% | 47.0 ± 24.0% | 1.58 | > 200 µg/mL |  |
| O=C(NC(CCC(=O)N1CCCCC1)C(=O)O)c1ccc(Cl)c(Cl)c1 [Compound D-9] | 88.5 ± 19.0% | 74.0 ± 16.0% | 70.9 ± 16.0% | 73.0 ± 15.0% | 84.5 ± 12.0% | 79.9 ± 12.0% | 75.1 ± 6.0% | 2.52 | > 200 µg/mL |  |
| CCCN(CCC)C(=O)C(CCC(=O)O)NC(=O)c1ccc(Cl)cc1 (stereo not drawn) [Compound C-3] | 44.4% | 83.7 ± 16.3% | 77.8 ± 17.1% | 46.4 ± 24.5% | 73.6 ± 17.7% | 45.8 ± 22.8% | 61.9 ± 18.2% | 2.10 | 34.4 µg/mL |  |
| Propoxyphene [reference compound] |  |  |  |  |  |  |  |  |  | TOTAL positives ([3]; propoxyphene 10 mg/kg i.p. alone): 8 X/30; positive responses over number treated ([3]; propoxyphene 10 mg/kg i.p. alone, 10'): 1/5; positive responses over number treated ([3]; propoxyphene 10 mg/kg i.p. alone, 20'): 2/5; positive responses over number treated ([3]; propoxyphene 10 mg/kg i.p. alone, 30'): 2/5; positive responses over number treated ([3]; propoxyphene 10 mg/kg i.p. alone, 45'): 2/5; positive responses over number treated ([3]; propoxyphene 10 mg/kg i.p. alone, 60'): 1/5; positive responses over number treated ([3]; propoxyphene 10 mg/kg i.p. alone, 90'): 0/5; TOTAL positives ([3]; propoxyphene 15 mg/kg i.p. alone): 12 x/30; positive responses over number treated ([3]; propoxyphene 15 mg/kg i.p. alone, 10'): 2/5; positive responses over number treated ([3]; propoxyphene 15 mg/kg i.p. alone, 20'): 2/5; positive responses over number treated ([3]; propoxyphene 15 mg/kg i.p. alone, 30'): 3/5; positive responses over number treated ([3]; propoxyphene 15 mg/kg i.p. alone, 45'): 3/5; positive responses over number treated ([3]; propoxyphene 15 mg/kg i.p. alone, 60'): 1/5; positive responses over number treated ([3]; propoxyphene 15 mg/kg i.p. alone, 90'): 3/5 |
| CC(=O)Oc1ccccc1C(=O)O [Acetyl Salicylic Acid, reference compound] |  |  |  |  |  |  |  |  |  | TOTAL positives ([3]; acetyl salicylic acid 100 mg/kg i.p. alone): 8 x/30; positive responses over number treated ([3]; acetyl salicylic acid 100 mg/kg i.p. alone, 10'): 1/5; positive responses over number treated ([3]; acetyl salicylic acid 100 mg/kg i.p. alone, 20'): 2/5; positive responses over number treated ([3]; acetyl salicylic acid 100 mg/kg i.p. alone, 30'): 2/5; positive responses over number treated ([3]; acetyl salicylic acid 100 mg/kg i.p. alone, 45'): 2/5; positive responses over number treated ([3]; acetyl salicylic acid 100 mg/kg i.p. alone, 60'): 0/5; positive responses over number treated ([3]; acetyl salicylic acid 100 mg/kg i.p. alone, 90'): 1/5 |
| CCC(=O)C(CC(C)N(C)C)(c1ccccc1)c1ccccc1 (stereo not drawn) [Methadone, reference compound] |  |  |  |  |  |  |  |  |  | TOTAL positives ([3]; methadone 1 mg/kg i.p. alone): 8 X/30; positive responses over number treated ([3]; methadone 1 mg/kg i.p. alone, 10'): 1/5; positive responses over number treated ([3]; methadone 1 mg/kg i.p. alone, 20'): 2/5; positive responses over number treated ([3]; methadone 1 mg/kg i.p. alone, 30'): 1/5; positive responses over number treated ([3]; methadone 1 mg/kg i.p. alone, 45'): 2/5; positive responses over number treated ([3]; methadone 1 mg/kg i.p. alone, 60'): 1/5; positive responses over number treated ([3]; methadone 1 mg/kg i.p. alone, 90'): 1/5 |
| CCCN(CCC)C(=O)C(CCC(=O)O)NC(=O)c1ccc(CC(C)C)cc1 (stereo not drawn) [Compound C-38] | 53.8% | 85.7 ± 10% | 92.0 ± 8% | 99.1 ± 1% | 91.2 ± 9% | 51.1 ± 14% | 78.8% | 2.64 |  |  |
| CC(C)c1ccc(C(=O)NC(CCC(=O)O)C(=O)NC2CCCCC2)cc1 (stereo not drawn) [Compound C-49] | 62.1 ± 9% | 100.0 ± 0% | 97.6 ± 2% | 99.5 ± 0.5% | 99.2 ± 0.5% | 65.8 ± 0.8% | 87.4% | 2.93 |  |  |
| CCCCC1C(=O)N(c2ccccc2)N(c2ccc(O)cc2)C1=O (stereo not drawn) [Oxyphenylbutazone, reference compound] |  |  |  |  |  |  |  |  |  | TOTAL positives ([3]; oxyphenylbutazone 50 mg/kg i.p. alone): 7 x/30; positive responses over number treated ([3]; oxyphenylbutazone 50 mg/kg i.p. alone, 10'): 2/5; positive responses over number treated ([3]; oxyphenylbutazone 50 mg/kg i.p. alone, 20'): 1/5; positive responses over number treated ([3]; oxyphenylbutazone 50 mg/kg i.p. alone, 30'): 2/5; positive responses over number treated ([3]; oxyphenylbutazone 50 mg/kg i.p. alone, 45'): 2/5; positive responses over number treated ([3]; oxyphenylbutazone 50 mg/kg i.p. alone, 60'): 0/5; positive responses over number treated ([3]; oxyphenylbutazone 50 mg/kg i.p. alone, 90'): 0/5 |
| Cc1ccc(C(=O)NC(CCC(=O)O)C(=O)N2CCCCC2)cc1C (stereo not drawn) [Compound C-52] | 72.8 ± 15% | 95.8 ± 3% | 96.3 ± 4% | 85.5 ± 10% | 87.6% | 45.3 ± 6% | 80.6 ± 19% | 2.70 |  |  |
| CCCCNC(=O)CCC(NC(=O)c1ccc(CCC)cc1)C(=O)O [Compound D-14] | 69.2 ± 14% | 93.4 ± 7% | 46.8 ± 15% | 71.3 ± 17% | 89.1 ± 9% | 60.3% | 71.1 ± 14% | 2.41 |  |  |
| CCCCNC(=O)CCC(NC(=O)c1ccc(CC)cc1)C(=O)O [Compound D-13] | 7.1 ± 8% | 32% | 62.5 ± 23% | 31.8 ± 21% | 48.5 ± 22% | 50.9 ± 14% | 38.8 ± 20% | 1.30 |  |  |
